Source: patent publication US11077120B2, “Prostaglandin receptor EP2 antagonists, derivatives, compositions, and uses related thereto” (Emory University, priority 2014, dated 2021)

The compounds below were run against T1, human EP2 receptors (Homo sapiens, UniProt P43116) (assay: cell-based cAMP TR-FRET assay, rightward shift of PGE2 concentration response curve (Schild KB), EP2). Details: Table 1; Schild KB from single antagonist concentration 1 μM; average of 2-3 measurements in duplicate; read-out: EP2 KB.
T1 construct: expressed in transfected cells
Procedure: KB value indicates the antagonist concentration required for a twofold rightward shift in the PGE2 dose-response curve. Thus, a lower KB value indicates a higher inhibitory potency.
The synthesis was carried out starting from commercially available 2-methyl indole or 2-trifluoromethyl indoles (11a-c), which on treatment with bromoacetonitrile provided intermediates (12a-c), which then were subjected to lithium aluminum hydride to reduce cyanide to amines. […] Synthesized derivatives were tested by using a cAMP-derived TR-FRET assay, at single concentration (1 μM) to observe a rightward shift of PGE2 (an EP2 agonist) concentration response curve in a C6G cell line that overexpresses human EP2 receptors.
A lower KB value indicates a higher inhibitory potency.
Intracellular cAMP was measured with a cell-based homogeneous time-resolved fluorescence resonance energy transfer (TR-FRET) method (Cisbio Bioassays). […] Endogenous cAMP produced by cells competes with labeled cAMP for binding to the cAMP antibody and thus reduces the FRET signal. Cells stably expressing human DP1, EP2, EP4, or IP receptors were seeded into 384-well plates in 30 μl complete medium (4,000 cells/well) and grown overnight. The medium was carefully withdrawn and 10 μl Hanks' Buffered Salt Solution (HBSS) (Hyclone) containing 20 μM rolipram was added into the wells to block phosphodiesterases. The cells were incubated at room temperature for 0.5-1 h and then treated with vehicle or test compound for 10 min before addition of increasing concentrations of appropriate agonist: BW245C for DP1, PGE2 for EP2 and EP4, or iloprost for IP. The cells were incubated at room temperature for 40 min, then lysed in 10 μl lysis buffer containing the FRET acceptor cAMP-d2 and 1 min later another 10 μl lysis buffer with anti-cAMP-Cryptate was added. After 60-90 min incubation at room temperature, the FRET signal was measured by an Envision 2103 Multilabel Plate Reader (PerkinElmer Life Sciences) with a laser excitation at 337 nm and dual emissions at 665 nm and 590 nm for d2 and Cryptate (50 s delay), respectively. The FRET signal was expressed as: F665/F590×10^4.

T1 sequence (P43116 whole entry): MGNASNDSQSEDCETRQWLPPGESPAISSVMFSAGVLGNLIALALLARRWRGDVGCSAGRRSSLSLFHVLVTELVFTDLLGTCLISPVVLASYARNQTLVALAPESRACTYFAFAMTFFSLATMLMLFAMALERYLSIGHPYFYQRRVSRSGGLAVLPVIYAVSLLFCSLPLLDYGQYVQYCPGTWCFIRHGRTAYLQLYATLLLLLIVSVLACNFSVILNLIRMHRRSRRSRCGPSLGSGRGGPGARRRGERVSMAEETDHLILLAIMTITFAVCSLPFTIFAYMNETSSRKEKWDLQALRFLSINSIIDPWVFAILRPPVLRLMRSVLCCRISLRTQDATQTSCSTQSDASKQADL

| SMILES | Kb [nM] |
| --- | --- |
| Cc1cc2ccccc2n1CCNC(=O)c1ccc(C2CCCCC2)cc1 [Compound 8b] | 120 |
| CCN(CC)c1ccc(C(=O)NCCn2c(C)cc3ccccc32)cc1C(F)(F)F [Compound 7e] | 310 |
| Cc1[nH]c2ccccc2c1CCNC(=O)c1ccc(N2CCCCC2)cc1 [Compound 9b] | 19.8 |
| Cc1cc2ccccc2n1CCNC(=O)c1ccc(N2CCN(C)CC2)cc1 [Compound 7q] | 64 |
| Cc1cc2ccccc2n1CCNC(=O)c1ccc(CN2CCOCC2)cc1 [Compound 8j] | 970 |
| CCN(CC)c1ccc(C(=O)NCCn2c(C)nc3ccccc32)cc1 [Compound 8v] | 190 |
| CC(=O)Nc1ccc(C(=O)NCCn2c(C)cc3ccccc32)cc1 [Compound 6n] | 97 |
| Cc1cc2ccccc2n1CCNC(=O)c1ccc(N2CCNCC2)cc1 [Compound 8c] | 410 |
| CCN(CC)c1ccc(C(=O)NCCn2c(C)cc3ccccc32)cc1F [Compound 7d] | 4.6 |
| Cc1cc2ccccc2n1CCNC(=O)c1ccc(CN)cc1 [Compound 6y] | 690 |
| Cc1cc2ccccc2n1CCNC(=O)c1cnc(N)nc1 [Compound 8l] | > 1000 |
| CCN(CC)c1ccc(C(=O)NCCn2c(C)cc3ccccc32)cc1OC [Compound 7g] | 61.2 |
| CCNc1ccc(C(=O)NCCn2c(C)cc3ccccc32)cc1C(F)(F)F [Compound 7f] | 20.2 |
| Cc1cc2ccccc2n1CCNC(=O)C1CCC(c2ncccn2)CC1 (stereo not drawn) [Compound 8q] | 380 |
| CC(=O)Oc1ccc(C(=O)NCCn2c(C)cc3ccccc32)cc1 [Compound 6m] | 150 |
| COc1ccc(C(=O)NCCn2c(C)cc3ccccc32)cc1F [Compound 7c] | 86.8 |
| Cc1cc2ccccc2n1CCNC(=O)c1ccc(N(C)C)c(F)c1 [Compound 7a] | 18.1 |
| Cc1cc2ccccc2n1CCNC(=O)c1ccc(OC2CCNCC2)cc1 [Compound 8i] | > 1000 |
| CCCCN(CCCC)c1ccc(C(=O)NCCn2c(C)cc3ccccc32)cc1 [Compound 6h] | 68.8 |
| CCN(CC)C(=O)c1ccc(C(=O)NCCn2c(C)cc3ccccc32)cc1 [Compound 6r] | 800 |

| SMILES | Kb [nM] |
| --- | --- |
| CC(=O)N1CCN(c2ccc(C(=O)NCCn3c(C)cc4ccccc43)cc2)CC1 [Compound 8d] | 50.2 |
| Cc1cc2ccccc2n1CCNC(=O)c1cccnc1N [Compound 8p] | 520 |
| Cc1[nH]c2ccccc2c1CCNC(=O)c1ccc(N2CCN(C)CC2)cc1 [Compound 9e] | 135 |
| Cc1cc2ccccc2n1CCNC(=O)c1ccc(CCN)cc1 [Compound 6z] | 1220 |
| COc1ccc(C(=O)NCCn2c(C)cc3ccccc32)cc1 [Compound 6c] | 75.6 |
| CCN(CC)c1ccc(C(=O)NCCn2c(C(F)(F)F)cc3ccccc32)cc1 [Compound 8t] | 150 |
| Cc1cc2cc(F)ccc2n1CCNC(=O)c1ccc(N2CCN(C)CC2)c(F)c1 [Compound 8s] | 62.2 |
| CCNc1ncc(C(=O)NCCc2c(C)[nH]c3ccccc23)cn1 [Compound 9f] | 155 |
| Cc1cc2ccccc2n1CCNC(=O)c1ccc(CNC(=O)OC(C)(C)C)cc1 [Compound 6x] | 84 |
| Cc1cc2ccccc2n1CCNC(=O)c1ccc(CN2CCN(C)CC2)cc1 [Compound 8k] | > 1000 |
| Cc1cc2ccccc2n1CCNC(=O)c1cccc(N2CCOCC2)c1 [Compound 7s] | > 1000 |
| CCN(CC)C(=O)c1ccc(C(=O)NCCc2c(C)[nH]c3ccccc23)cc1 [Compound 8y] | > 1000 |
| Cc1[nH]c2ccccc2c1CCNC(=O)c1ccc(N2CCOCC2)c(F)c1 [Compound 9d] | 66 |
| CCN(CC)c1ccc(C(=O)NCCn2cnc3ccccc32)cc1 [Compound 8w] | > 1000 |
| Cc1cc2ccccc2n1CCNC(=O)c1ccc2[nH]c(=S)[nH]c(=O)c2c1 [Compound 8f] | 84.1 |
| Cc1cc2ccccc2n1CCNC(=O)c1ccc(-n2nn[nH]c2=S)cc1 [Compound 7y] | 32.2 |
| Cc1cc2ccccc2n1CCNC(=O)c1ccc(NC(=O)c2ccccc2F)cc1 [Compound 6o] | 51 |
| Cc1cc2ccccc2n1CCNC(=O)c1nc2cc(F)ccc2[nH]1 [Compound 9h] | 130 |
| Cc1cc2ccccc2n1CCNC(=O)c1ccc(C#N)c(F)c1 [Compound 7h] | 140 |
| O=C(NCCn1c(C(F)(F)F)cc2ccccc21)c1ccc(N2CCOCC2)cc1 [Compound 8u] | 120 |

| SMILES | Kb [nM] |
| --- | --- |
| Cc1[nH]c2ccccc2c1CCNC(=O)c1cnc(N2CCOCC2)nc1 [Compound 9g] | 280 |
| Cc1cc2ccccc2n1CCNC(=O)c1ccc(C(=O)OC(C)(C)C)cc1 [Compound 6t] | 100 |
| CCNc1ccc(C(=O)NCCn2c(C)cc3ccccc32)cc1 [Compound 6d] | 15.5 |
| Cc1cc2ccccc2n1CCNC(=O)c1ccc(C2CCCN(C(=O)OC(C)(C)C)C2)cc1 (stereo not drawn) [Compound 8g] | 95 |
| CCOC(=O)C1CCN(c2ccc(C(=O)NCCn3c(C)cc4ccccc43)cc2)CC1 [Compound 7m] | 500 |
| Cc1cc2ccccc2n1CCNC(=O)c1ccc(O)cc1 [Compound 6j] | > 1000 |
| Cc1cc2ccccc2n1CCNC(=O)c1ccc(NC(=N)N)cc1 [Compound 6k] | > 1000 |
| Cc1cc2ccccc2n1CCNC(=O)c1ccc(N2CCCN(C)CC2)cc1 [Compound 7v] | 148 |
| Cc1cc2ccccc2n1CCNC(=O)c1ccc(C#N)cc1F [Compound 7i] | 280 |
| Cc1cc2ccccc2n1CCNC(=O)c1ccc(C2CCCNC2)cc1 (stereo not drawn) [Compound 8h] | > 1000 |
| CC(=O)Nc1ccc(C(=O)NCCn2c(C)cc3ccccc32)cc1F [Compound 7b] | 530 |
| Cc1cc2ccccc2n1CCNC(=O)c1cccc(N2CCN(C)CC2)c1 [Compound 7r] | 770 |
| Cc1cc2ccccc2n1CCNC(=O)c1ccc(S(N)(=O)=O)cc1 [Compound 6v] | 486 |
| Cc1cc2ccccc2n1CCNC(=O)c1ccc(C(=O)N(C)C)cc1 [Compound 6q] | > 1000 |
| Cc1cc2cc(F)ccc2n1CCNC(=O)c1ccc(N2CCOCC2)cc1 [Compound 8r] | 14.9 |
| Cc1cc2ccccc2n1CCNC(=O)c1ccc(N2CCC(C)CC2)cc1 [Compound 7l] | 30.3 |
| Cc1cc2ccccc2n1CCNC(=O)c1ccc(-n2cnnn2)cc1 [Compound 7x] | 42.2 |
| Cc1cc2ccccc2n1CCNC(=O)c1ccc2[nH]nnc2c1 [Compound 8e] | 87.5 |

Same assay, conditions: Table 3; Schild KB from single concentration 1 μM; read-out: EP2 KB

| SMILES | Kb [nM] |
| --- | --- |
| COc1cc(/C=C/C(=O)N2CCC(c3c(C)[nH]c4ccccc34)C2)cc(OC)c1OC (stereo not drawn) [Compound 16o] | > 1000 |
| COc1cc(/C=C/C(=O)N2CCCC(c3c(C)[nH]c4ccccc34)C2)cc(OC)c1OC (stereo not drawn) [Compound 16n] | > 1000 |

Same assay, conditions: Table 6

| SMILES | EP2 KB |
| --- | --- |
| Cc1nc2ccccc2c(C(=O)NCCn2c(C)cc3ccccc32)c1O [TG7-276] | Inactive |
| Cc1cc2ccccc2n1CCNC(=O)c1ccc(OCCN(C)C)c(OCCN(C)C)c1 [TG8-76-2] | Inactive |

Same assay, conditions: Table 6; read-out: EP2 KB

| SMILES | Kb [nM] |
| --- | --- |
| O=C(NCCn1c(C(F)(F)F)cc2ccccc21)c1cc(-c2ccc(F)cc2)n[nH]1 [TG7-266] | 8800 |
| COc1cc(C(=O)NCCn2c(C)cc3ccccc32)ccc1OCCN(C)C [TG8-75] | 1000 |
| Cc1cc(C(=O)NCCn2c(C)cc3ccccc32)n(Cc2ccccc2)n1 [TG7-274] | 1330 |
| Cc1cc2ccccc2n1CCNC(=O)c1ccc(N2CCC(C(=O)N(C)C)CC2)cc1 [TG8-64] | 190 |
| Cc1cc2ccccc2n1CCNC(=O)c1cc(CC(C)C)no1 [TG7-277] | 172 |
| Cc1ccc2c(O)c(C(=O)NCCn3c(C)cc4ccccc43)cnc2n1 [TG7-275] | 1810 |

Same assay, conditions: read-out: EP2 KB

| SMILES | Kb [nM] |
| --- | --- |
| Cc1cc2ccccc2n1CCNC(=O)c1cccc(S(N)(=O)=O)c1 [Compound 6w] | > 1000 |
